Data as given in patent EP0007672A1, “Isocyanoalkenes, process and useful intermediates for their preparation, pharmaceutical and fungicidal preparations containing those isocyanoalkenes and the use of the fungicidal preparations in agriculture” (GIST-BROCADES N.V., priority 1978, dated 1980).
Converted amounts (≈) assume the structure as drawn. Read-outs that look alike come from different tables or passages of the source. One block for each compound: values may come before it.

Columns and labels:
Assay in all cases: MIC (Minimum Inhibitory Concentration)
Assay type in all cases: cell-based
Trichophyton quickeaneum = Trichophyton quickeaneum A 2040; read-out: MIC values
Source text: (§1) In addition they may be used for combatting plant diseases, in particular as fungicides. A list of MIC (Minimum Inhibitory Concentration) values for a number of microorganisms is listed herebelow. The figures in the column headings refer to the compounds prepared according to the experimental examples in comparison with the spectrum of 1-[2-(2,4-dichlorophenyl)-2-{(2,4-dichlorophenyl)-methoxy} -ethyl7-1H-imidazole (better known under the name of miconazole, c.f. Merck Index 9th Ed. page 6047) or natamycin (pimaricin, c.f. Merck Index 9th Ed. page 7233).

[1] = system: Trichophyton mentagrophytus
Source text: as §1

Candida albicans = system: Candida albicans
Source text: as §1

Pasteurella multocida = conditions: read-out: MIC values
Source text: as §1

Trichophyton violoceum = Trichophyton violoceum 442-62; read-out: MIC values
Source text: as §1

[2] = system: Streptococcus haemolyticus; conditions: read-out: MIC values
Source text: as §1

Trichophyton tonsurans = Trichophyton tonsurans 561-50; read-out: MIC values
Source text: as §1

[3] = system: Trichophyton schoenleinii; conditions: Trichophyton schoenleinii 435-63; read-out: MIC values
Source text: as §1

Trichophyton equinum = system: Trichophyton equinum
Source text: as §1

Trichophyton rubrum = system: Trichophyton rubrum
Source text: as §1

[4] = Trichophyton mentagrophytus 367-68, read-out: MIC values
[5] = Trichophyton mentagrophytus 421-67, read-out: MIC values
[6] = Trichophyton mentagrophytus A 3252, read-out: MIC values
[7] = Trichophyton mentagrophytus R 177, read-out: MIC values
[8] = Trichophyton mentagrophytus R 178, read-out: MIC values
[9] = Trichophyton mentagrophytus RRL 305, read-out: MIC values
[10] = Candida albicans A 7, read-out: MIC values
[11] = Candida albicans A 3140, read-out: MIC values
[12] = Candida albicans A 3141, read-out: MIC values
[13] = Candida albicans A 3142, read-out: MIC values
[14] = Candida albicans A 3143, read-out: MIC values
[15] = Candida albicans A 3144, read-out: MIC values
[16] = Candida albicans A 3145, read-out: MIC values
[17] = Candida albicans A 3165, read-out: MIC values
[18] = Candida albicans A 3166, read-out: MIC values
[19] = Candida albicans A 3167, read-out: MIC values
[20] = Candida albicans A 3168, read-out: MIC values
[21] = Candida albicans A 3169, read-out: MIC values
[22] = Candida albicans A 3171, read-out: MIC values
[23] = Candida albicans A 3184, read-out: MIC values
[24] = Candida albicans A 3190, read-out: MIC values
[25] = Candida albicans A 3191, read-out: MIC values
[26] = Candida albicans A 3192, read-out: MIC values
[27] = Candida albicans A 3194, read-out: MIC values
[28] = Candida albicans A 3196, read-out: MIC values
[29] = Streptococcus haemolyticus A 1088
[30] = Trichophyton equinum 182-76, read-out: MIC values
[31] = Trichophyton equinum 856-71, read-out: MIC values
[32] = Trichophyton rubrum 218-65, read-out: MIC values
[33] = Trichophyton rubrum 494-62, read-out: MIC values
[34] = Trichophyton rubrum A 810, read-out: MIC values

MIC (Trichophyton quickeaneum): 6 µg/mL (≈ 20.2 µM) | MIC [1, 4]: 12.5 µg/mL (≈ 42 µM) | MIC [1, 5]: 6 µg/mL (≈ 20.2 µM) | MIC [1, 6]: 6 µg/mL (≈ 20.2 µM) | MIC [1, 7]: 3 µg/mL (≈ 10.1 µM) | MIC [1, 8]: 6 µg/mL (≈ 20.2 µM) | MIC [1, 9]: 25 µg/mL (≈ 84.1 µM) | MIC (Candida albicans; [10]): 3 µg/mL (≈ 10.1 µM) | MIC (Candida albicans; [11]): 6 µg/mL (≈ 20.2 µM) | MIC (Candida albicans; [12]): 6 µg/mL (≈ 20.2 µM) | MIC (Candida albicans; [13]): 6 µg/mL (≈ 20.2 µM) | MIC (Candida albicans; [14]): 6 µg/mL (≈ 20.2 µM) | MIC (Candida albicans; [15]): 3 µg/mL (≈ 10.1 µM) | MIC (Candida albicans; [16]): 3 µg/mL (≈ 10.1 µM) | MIC (Candida albicans; [17]): 3 µg/mL (≈ 10.1 µM) | MIC (Candida albicans; [18]): 3 µg/mL (≈ 10.1 µM) | MIC (Candida albicans; [19]): 3 µg/mL (≈ 10.1 µM) | MIC (Candida albicans; [20]): 6 µg/mL (≈ 20.2 µM) | MIC (Candida albicans; [21]): 6 µg/mL (≈ 20.2 µM) | MIC (Candida albicans; [22]): 6 µg/mL (≈ 20.2 µM) | MIC (Candida albicans; [23]): 6 µg/mL (≈ 20.2 µM) | MIC (Candida albicans; [24]): 6 µg/mL (≈ 20.2 µM) | MIC (Candida albicans; [25]): 6 µg/mL (≈ 20.2 µM) | MIC (Candida albicans; [26]): 3 µg/mL (≈ 10.1 µM) | MIC (Candida albicans; [27]): 3 µg/mL (≈ 10.1 µM) | MIC (Candida albicans; [28]): 6 µg/mL (≈ 20.2 µM) | MIC (Pasteurella multocida; Pasteurella multocida A 723): 3 µg/mL (≈ 10.1 µM) | MIC (Trichophyton violoceum): 3 µg/mL (≈ 10.1 µM) | MIC (Trichophyton tonsurans): 0.1 µg/mL (≈ 0.336 µM) | MIC [3]: 1.5 µg/mL (≈ 5.04 µM) | MIC (Trichophyton equinum; [30]): 12.5 µg/mL (≈ 42 µM) | MIC (Trichophyton equinum; [31]): 6 µg/mL (≈ 20.2 µM) | MIC (Trichophyton rubrum; [32]): 3 µg/mL (≈ 10.1 µM) | MIC (Trichophyton rubrum; [33]): 6 µg/mL (≈ 20.2 µM) | MIC (Trichophyton rubrum; [34]): 3 µg/mL (≈ 10.1 µM)
Compound: [C-]#[N+]C(=C(C)c1ccccc1)S(=O)(=O)c1ccc(C)cc1 [Example 12, 2-phenyl-1-isocyano-1-(4-toluenesulphonyl)-1-propene]
MIC [2, 29]: 50 µg/mL (≈ 168 µM)

MIC (Trichophyton quickeaneum): 6 µg/mL (≈ 20.4 µM) | MIC [1, 4]: 6 µg/mL (≈ 20.4 µM) | MIC [1, 5]: 6 µg/mL (≈ 20.4 µM) | MIC [1, 6]: 12.5 µg/mL (≈ 42.6 µM) | MIC [1, 7]: 6 µg/mL (≈ 20.4 µM) | MIC [1, 8]: 12.5 µg/mL (≈ 42.6 µM) | MIC [1, 9]: 12.5 µg/mL (≈ 42.6 µM) | MIC (Candida albicans; [10]): 3 µg/mL (≈ 10.2 µM) | MIC (Candida albicans; [11]): 3 µg/mL (≈ 10.2 µM) | MIC (Candida albicans; [12]): 3 µg/mL (≈ 10.2 µM) | MIC (Candida albicans; [13]): 3 µg/mL (≈ 10.2 µM) | MIC (Candida albicans; [14]): 3 µg/mL (≈ 10.2 µM) | MIC (Candida albicans; [15]): 6 µg/mL (≈ 20.4 µM) | MIC (Candida albicans; [16]): 6 µg/mL (≈ 20.4 µM) | MIC (Candida albicans; [17]): 3 µg/mL (≈ 10.2 µM) | MIC (Candida albicans; [18]): 3 µg/mL (≈ 10.2 µM) | MIC (Candida albicans; [19]): 3 µg/mL (≈ 10.2 µM) | MIC (Candida albicans; [20]): 3 µg/mL (≈ 10.2 µM) | MIC (Candida albicans; [21]): 3 µg/mL (≈ 10.2 µM) | MIC (Candida albicans; [22]): 3 µg/mL (≈ 10.2 µM) | MIC (Candida albicans; [23]): 3 µg/mL (≈ 10.2 µM) | MIC (Candida albicans; [24]): 3 µg/mL (≈ 10.2 µM) | MIC (Candida albicans; [25]): 6 µg/mL (≈ 20.4 µM) | MIC (Candida albicans; [26]): 3 µg/mL (≈ 10.2 µM) | MIC (Candida albicans; [27]): 3 µg/mL (≈ 10.2 µM) | MIC (Candida albicans; [28]): 3 µg/mL (≈ 10.2 µM) | MIC (Pasteurella multocida; Pasteurella multocida A 723): 3 µg/mL (≈ 10.2 µM) | MIC (Trichophyton violoceum): 3 µg/mL (≈ 10.2 µM) | MIC (Trichophyton tonsurans): 0.8 µg/mL (≈ 2.73 µM) | MIC [3]: 1.5 µg/mL (≈ 5.11 µM) | MIC (Trichophyton equinum; [30]): 6 µg/mL (≈ 20.4 µM) | MIC (Trichophyton equinum; [31]): 12.5 µg/mL (≈ 42.6 µM) | MIC (Trichophyton rubrum; [32]): 1.5 µg/mL (≈ 5.11 µM) | MIC (Trichophyton rubrum; [33]): 12.5 µg/mL (≈ 42.6 µM) | MIC (Trichophyton rubrum; [34]): 1.5 µg/mL (≈ 5.11 µM)
Compound: [C-]#[N+]C(C1=CCSCC1)S(=O)(=O)c1ccc(C)cc1 (stereo not drawn) [Example 16b, a-(3,4-dehydrothian-4-yl)-a-(4-toluenesulphonyl)-methylisocyanide]
MIC [2, 29]: 50 µg/mL (≈ 170 µM)

Compound: [C-]#[N+]C(=C1CCCCCC1)S(=O)(=O)c1ccc(C)cc1 [Example 18a, a-cycloheptylidene-a-(4-toluenesulphonyl)-methylisocyanide]
MIC (Candida albicans; read-out: MIC values, Candida albicans A 7): 1.5 µg/mL (≈ 5.18 µM) | MIC (Candida albicans; read-out: MIC values, Candida albicans A 3140): 1.5 µg/mL (≈ 5.18 µM) | MIC (Candida albicans; read-out: MIC values, Candida albicans A 3141): 3 µg/mL (≈ 10.4 µM) | MIC (Candida albicans; read-out: MIC values, Candida albicans A 3142): 1.5 µg/mL (≈ 5.18 µM) | MIC (Candida albicans; read-out: MIC values, Candida albicans A 3143): 1.5 µg/mL (≈ 5.18 µM) | MIC (Candida albicans; read-out: MIC values, Candida albicans A 3144): 3 µg/mL (≈ 10.4 µM) | MIC (Candida albicans; read-out: MIC values, Candida albicans A 3145): 3 µg/mL (≈ 10.4 µM) | MIC (Candida albicans; read-out: MIC values, Candida albicans A 3165): 1.5 µg/mL (≈ 5.18 µM) | MIC (Candida albicans; read-out: MIC values, Candida albicans A 3166): 3 µg/mL (≈ 10.4 µM) | MIC (Candida albicans; read-out: MIC values, Candida albicans A 3167): 0.75 µg/mL (≈ 2.59 µM) | MIC (Candida albicans; read-out: MIC values, Candida albicans A 3168): 0.75 µg/mL (≈ 2.59 µM) | MIC (Candida albicans; read-out: MIC values, Candida albicans A 3169): 3 µg/mL (≈ 10.4 µM) | MIC (Candida albicans; read-out: MIC values, Candida albicans A 3171): 1.5 µg/mL (≈ 5.18 µM) | MIC (Candida albicans; read-out: MIC values, Candida albicans A 3184): 3 µg/mL (≈ 10.4 µM) | MIC (Candida albicans; read-out: MIC values, Candida albicans A 3190): 3 µg/mL (≈ 10.4 µM) | MIC (Candida albicans; read-out: MIC values, Candida albicans A 3191): 3 µg/mL (≈ 10.4 µM) | MIC (Candida albicans; read-out: MIC values, Candida albicans A 3192): 1.5 µg/mL (≈ 5.18 µM) | MIC (Candida albicans; read-out: MIC values, Candida albicans A 3194): 1.5 µg/mL (≈ 5.18 µM) | MIC (Candida albicans; read-out: MIC values, Candida albicans A 3196): 3 µg/mL (≈ 10.4 µM) | MIC (Pasteurella multocida; Pasteurella multocida): 20 µg/mL (≈ 69.1 µM) | MIC ([2]; Streptococcus): 10 µg/mL (≈ 34.6 µM)
